Measurements published in publication PMC9329436, “Optimization of the 4-anilinoquin(az)oline scaffold as epidermal growth factor receptor (EGFR) inhibitors for chordoma utilizing a toxicology profiling assay platform” (Scientific Reports, 2022).
Like-named read-outs stand apart in the source and are kept apart here.

Tests used:
Assay type in all cases: biochemical
[1] = target: T1, 320 wild-type protein kinases (Homo sapiens, UniProt P25098); conditions: singlicate
T1 sequence (P25098 1-689): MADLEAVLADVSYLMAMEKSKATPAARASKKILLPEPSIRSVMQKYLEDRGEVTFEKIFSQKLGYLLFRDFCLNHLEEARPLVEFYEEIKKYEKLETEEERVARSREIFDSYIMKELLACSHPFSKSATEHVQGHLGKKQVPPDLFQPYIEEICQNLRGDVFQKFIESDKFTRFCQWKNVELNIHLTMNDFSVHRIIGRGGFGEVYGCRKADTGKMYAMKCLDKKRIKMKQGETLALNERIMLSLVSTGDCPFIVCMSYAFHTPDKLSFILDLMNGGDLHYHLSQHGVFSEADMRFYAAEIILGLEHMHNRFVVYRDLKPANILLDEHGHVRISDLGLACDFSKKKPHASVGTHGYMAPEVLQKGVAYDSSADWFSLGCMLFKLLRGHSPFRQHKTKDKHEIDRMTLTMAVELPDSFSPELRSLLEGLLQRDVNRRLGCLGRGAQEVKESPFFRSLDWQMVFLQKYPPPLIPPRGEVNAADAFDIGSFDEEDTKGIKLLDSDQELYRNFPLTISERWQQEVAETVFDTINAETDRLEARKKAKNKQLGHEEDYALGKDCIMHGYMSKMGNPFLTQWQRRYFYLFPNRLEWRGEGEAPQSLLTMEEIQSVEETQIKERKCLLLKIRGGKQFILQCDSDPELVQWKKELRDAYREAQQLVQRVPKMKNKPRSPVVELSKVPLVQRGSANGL
Description: (§1) Table S4. Profiling of two compounds at two concentrations against 320 wild-type protein kinases; singlicate measurement; Residual activities (% of control).

[2] = target: T2, 320 wild-type protein kinases (Homo sapiens, UniProt O15111); conditions: IKK-alpha, singlicate
T2 sequence (O15111 1-745): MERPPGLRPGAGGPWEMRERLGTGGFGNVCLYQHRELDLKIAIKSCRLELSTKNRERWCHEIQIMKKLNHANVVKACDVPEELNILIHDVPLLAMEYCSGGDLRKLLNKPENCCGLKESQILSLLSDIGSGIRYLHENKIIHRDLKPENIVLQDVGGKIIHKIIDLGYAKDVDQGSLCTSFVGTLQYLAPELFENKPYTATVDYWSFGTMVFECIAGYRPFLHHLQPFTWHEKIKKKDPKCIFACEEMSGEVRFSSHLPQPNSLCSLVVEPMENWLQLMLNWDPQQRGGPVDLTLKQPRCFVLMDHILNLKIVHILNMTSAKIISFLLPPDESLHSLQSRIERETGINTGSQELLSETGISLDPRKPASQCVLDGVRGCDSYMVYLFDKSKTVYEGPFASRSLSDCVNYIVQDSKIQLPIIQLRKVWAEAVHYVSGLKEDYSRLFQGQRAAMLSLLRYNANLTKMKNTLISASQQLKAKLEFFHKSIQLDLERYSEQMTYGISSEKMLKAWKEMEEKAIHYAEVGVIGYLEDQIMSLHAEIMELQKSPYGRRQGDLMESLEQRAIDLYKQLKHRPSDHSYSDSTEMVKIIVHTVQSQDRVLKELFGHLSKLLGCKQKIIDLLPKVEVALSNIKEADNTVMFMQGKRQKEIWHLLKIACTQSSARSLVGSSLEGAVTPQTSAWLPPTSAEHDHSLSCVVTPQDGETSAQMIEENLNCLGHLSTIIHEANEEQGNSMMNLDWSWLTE
Description: as §1

[3] = target: 320 wild-type protein kinases (Homo sapiens, UniProt O75116); conditions: kinase ROCK2, singlicate
320 wild-type protein kinases (Homo sapiens, UniProt O75116), sequence (O75116 whole entry): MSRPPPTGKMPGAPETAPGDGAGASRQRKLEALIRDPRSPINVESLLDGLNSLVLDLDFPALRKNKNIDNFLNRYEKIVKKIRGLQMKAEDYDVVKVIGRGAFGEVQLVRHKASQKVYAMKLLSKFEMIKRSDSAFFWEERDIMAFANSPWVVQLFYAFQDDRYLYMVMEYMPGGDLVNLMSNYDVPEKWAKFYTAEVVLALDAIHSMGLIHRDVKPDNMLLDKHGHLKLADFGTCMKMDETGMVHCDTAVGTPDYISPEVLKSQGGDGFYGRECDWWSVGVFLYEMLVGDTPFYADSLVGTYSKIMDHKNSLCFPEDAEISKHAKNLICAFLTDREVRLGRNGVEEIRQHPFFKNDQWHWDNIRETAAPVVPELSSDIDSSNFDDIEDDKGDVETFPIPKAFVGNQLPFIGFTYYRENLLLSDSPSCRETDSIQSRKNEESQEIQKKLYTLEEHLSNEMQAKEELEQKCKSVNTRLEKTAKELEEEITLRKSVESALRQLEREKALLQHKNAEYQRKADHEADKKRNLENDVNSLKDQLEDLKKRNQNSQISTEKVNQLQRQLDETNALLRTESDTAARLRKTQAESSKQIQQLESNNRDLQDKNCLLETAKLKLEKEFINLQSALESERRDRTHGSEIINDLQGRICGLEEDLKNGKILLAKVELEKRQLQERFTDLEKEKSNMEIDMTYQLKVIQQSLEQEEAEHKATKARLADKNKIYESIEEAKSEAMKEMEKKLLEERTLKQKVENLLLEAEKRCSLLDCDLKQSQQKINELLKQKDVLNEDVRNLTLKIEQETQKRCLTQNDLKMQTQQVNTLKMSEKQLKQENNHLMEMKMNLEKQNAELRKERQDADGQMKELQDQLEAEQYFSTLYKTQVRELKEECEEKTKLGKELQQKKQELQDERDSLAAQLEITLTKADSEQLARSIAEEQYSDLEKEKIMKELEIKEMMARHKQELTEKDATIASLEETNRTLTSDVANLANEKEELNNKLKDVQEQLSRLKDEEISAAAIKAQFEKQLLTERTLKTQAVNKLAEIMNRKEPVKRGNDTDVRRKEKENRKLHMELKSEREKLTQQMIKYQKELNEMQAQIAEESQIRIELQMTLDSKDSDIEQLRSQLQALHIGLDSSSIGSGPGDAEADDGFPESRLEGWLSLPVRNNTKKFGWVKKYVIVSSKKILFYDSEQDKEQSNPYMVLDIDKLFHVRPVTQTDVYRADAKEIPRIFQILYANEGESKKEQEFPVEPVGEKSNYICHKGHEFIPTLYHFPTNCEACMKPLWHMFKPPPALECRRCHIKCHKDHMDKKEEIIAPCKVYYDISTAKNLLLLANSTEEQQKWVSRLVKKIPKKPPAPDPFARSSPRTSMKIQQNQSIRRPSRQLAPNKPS
Description: as §1

[4] = target: T3, 320 wild-type protein kinases (Homo sapiens, UniProt Q99759); conditions: singlicate
T3 sequence (Q99759 1-626): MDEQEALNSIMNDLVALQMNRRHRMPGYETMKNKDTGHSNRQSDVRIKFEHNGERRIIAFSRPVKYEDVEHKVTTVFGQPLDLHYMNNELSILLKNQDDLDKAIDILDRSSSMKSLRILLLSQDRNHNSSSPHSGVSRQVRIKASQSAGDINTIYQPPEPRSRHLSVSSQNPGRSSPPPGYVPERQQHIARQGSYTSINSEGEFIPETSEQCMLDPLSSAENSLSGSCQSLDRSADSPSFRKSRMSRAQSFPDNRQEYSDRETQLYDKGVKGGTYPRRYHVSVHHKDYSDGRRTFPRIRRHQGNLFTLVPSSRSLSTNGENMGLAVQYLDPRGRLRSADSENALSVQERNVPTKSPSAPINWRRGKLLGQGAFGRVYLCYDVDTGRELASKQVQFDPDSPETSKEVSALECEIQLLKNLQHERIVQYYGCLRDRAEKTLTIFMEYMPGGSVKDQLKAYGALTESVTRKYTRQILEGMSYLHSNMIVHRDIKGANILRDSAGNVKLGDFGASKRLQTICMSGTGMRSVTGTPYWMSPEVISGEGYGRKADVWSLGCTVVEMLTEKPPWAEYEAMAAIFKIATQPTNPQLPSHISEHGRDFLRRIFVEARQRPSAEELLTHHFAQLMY
Description: as §1

[5] = target: 320 wild-type protein kinases (Homo sapiens, UniProt Q8IU85); conditions: CAMK1D, singlicate
320 wild-type protein kinases (Homo sapiens, UniProt Q8IU85), sequence (Q8IU85 whole entry): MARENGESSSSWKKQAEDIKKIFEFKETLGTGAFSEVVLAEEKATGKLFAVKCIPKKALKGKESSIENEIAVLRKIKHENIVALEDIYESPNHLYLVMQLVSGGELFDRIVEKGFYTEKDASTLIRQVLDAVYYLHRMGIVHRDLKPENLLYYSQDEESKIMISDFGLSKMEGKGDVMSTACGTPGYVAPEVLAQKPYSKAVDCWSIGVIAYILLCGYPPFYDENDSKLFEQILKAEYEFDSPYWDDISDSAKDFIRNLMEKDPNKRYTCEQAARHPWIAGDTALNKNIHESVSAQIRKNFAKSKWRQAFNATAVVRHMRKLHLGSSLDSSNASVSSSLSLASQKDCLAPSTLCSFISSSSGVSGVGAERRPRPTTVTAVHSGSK
Description: as §1

## C#Cc1cc(Nc2ncnc3cc(I)ccc23)ccc1Cl [Compound 41]
[1]; GRK2, 1.0E-06 M
  Residual activity: 117 % of control
[1]; GRK2, 1.0E-07 M
  Residual activity: 104 % of control
[2]; 1.0E-06 M
  Residual activity: 100 % of control
[2]; 1.0E-07 M
  Residual activity: 109 % of control
[3]; assay conc. 1.0E-06 M
  Residual activity, ROCK2: 88 % of control
[3]; assay conc. 1.0E-07 M
  Residual activity, ROCK2: 100 % of control
[4]; MEKK3, 1.0E-06 M
  Residual activity: 107 % of control
[4]; MEKK3, 1.0E-07 M
  Residual activity: 106 % of control
[5]; 1.0E-06 M
  Residual activity: 77 % of control
[5]; 1.0E-07 M
  Residual activity: 86 % of control

## C#Cc1cc(Nc2ncnc3cc(OC)c(OC)cc23)ccc1Cl [Compound 45]
[1]; GRK2, 1.0E-06 M
  Residual activity: 111 % of control
[1]; GRK2, 1.0E-07 M
  Residual activity: 96 % of control
[2]; 1.0E-06 M
  Residual activity: 95 % of control
[2]; 1.0E-07 M
  Residual activity: 106 % of control
[3]; assay conc. 1.0E-06 M
  Residual activity, ROCK2: 84 % of control
[3]; assay conc. 1.0E-07 M
  Residual activity, ROCK2: 90 % of control
[4]; MEKK3, 1.0E-06 M
  Residual activity: 117 % of control
[4]; MEKK3, 1.0E-07 M
  Residual activity: 115 % of control
[5]; 1.0E-06 M
  Residual activity: 84 % of control
[5]; 1.0E-07 M
  Residual activity: 99 % of control
